Legend:
Carboplatin = compound: C1CC(C1)(C(=O)[O-])C(=O)[O-].N.N.[Pt+2] [Carboplatin]; details: max 10 µM
Method in brief: (§1)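 In 1536-well plates, cancer cell lines in 7.5 μl DMEM/F12 or RPMI with 10% FBS spent 24 hours at 37°C and 5% CO2 and were then dosed for 72 hours with final DMSO typically 0.2%. Viability was read by CellTiter-Glo 2.0 luminescence and scaled between blank-well and DMSO-well means. The single-agent IC50 was fitted from dose responses using a logistic curve in a non-linear mixed effects model, and that logistic curve had two parameters.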

AZD5363 = compound: C1CN(CCC1(C(=O)N[C@@H](CCO)C2=CC=C(C=C2)Cl)N)C3=NC=NC4=C3C=CN4 [AZD5363]; details: max 10 µM
Method in brief: as §1

AZD1775 = compound: C=CCn1c(=O)c2cnc(Nc3ccc(N4CCN(C)CC4)cc3)nc2n1-c1cccc(C(C)(C)O)n1 [AZD1775]; details: max 3 µM
Method in brief: as §1

Trametinib = compound: CC(=O)Nc1cccc(-n2c(=O)n(C3CC3)c(=O)c3c(Nc4ccc(I)cc4F)n(C)c(=O)c(C)c32)c1 [Trametinib]; details: max 1 µM
Method in brief: as §1

Paclitaxel = compound: CC(=O)O[C@H]1C(=O)[C@@]2(C)[C@H]([C@H](OC(=O)c3ccccc3)[C@]3(O)C[C@H](OC(=O)[C@H](O)[C@@H](NC(=O)c4ccccc4)c4ccccc4)C(C)=C1C3(C)C)[C@]1(OC(C)=O)CO[C@@H]1C[C@@H]2O [Paclitaxel]; details: max 3 µM
Method in brief: as §1

Palbociclib = compound: CC(=O)c1c(C)c2cnc(Nc3ccc(N4CCNCC4)cn3)nc2n(C2CCCC2)c1=O [Palbociclib]; details: max 10 µM
Method in brief: as §1

AZD1390 = compound: CC(C)n1c(=O)n(C)c2cnc3cc(F)c(-c4ccc(OCCCN5CCCCC5)nc4)cc3c21 [AZD1390]; details: max 0.3 µM
Method in brief: as §1

Venetoclax = compound: CC1(C)CCC(CN2CCN(c3ccc(C(=O)NS(=O)(=O)c4ccc(NCC5CCOCC5)c([N+](=O)[O-])c4)c(Oc4cnc5[nH]ccc5c4)c3)CC2)=C(c2ccc(Cl)cc2)C1 [Venetoclax]; details: max 1 µM
Method in brief: as §1

Dasatinib = compound: CC1=C(C(=CC=C1)Cl)NC(=O)C2=CN=C(S2)NC3=CC(=NC(=N3)C)N4CCN(CC4)CCO [Dasatinib]; details: max 2 µM
Method in brief: as §1

SG3199 = compound: CC1=CN2[C@@H](C1)C=NC3=CC(=C(C=C3C2=O)OC)OCCCCCOC4=C(C=C5C(=C4)N=C[C@@H]6CC(=CN6C5=O)C)OC [SG3199]; details: max 0.001 µM
Method in brief: as §1

AZD2811 = compound: CCN(CCO)CCCOc1ccc2c(Nc3cc(CC(=O)Nc4cccc(F)c4)[nH]n3)ncnc2c1 [AZD2811]; details: max 1 µM
Method in brief: as §1

SN-38 = compound: CCc1c2c(nc3ccc(O)cc13)-c1cc3c(c(=O)n1C2)COC(=O)[C@]3(O)CC [SN-38]; details: max 0.3 µM
Method in brief: as §1

AZD0156 = compound: CN(C)CCCOc1ccc(-c2ccc3ncc4c(c3c2)n(C2CCOCC2)c(=O)n4C)cn1 [AZD0156]; details: max 3 µM
Method in brief: as §1

AZD4320 = compound: CN(CC[C@H](CSC1=CC=CC=C1)NC2=C(C=C(C=C2)S(=O)(=O)NC(=O)C3=CC=C(C=C3)N4CCC(CC4)[C@H](C5=CC=CC=C5C6=CC=C(C=C6)Cl)O)S(=O)(=O)C(F)(F)F)CCO [AZD4320]; details: max 1 µM
Method in brief: as §1

Alisertib = compound: COc1cc(Nc2ncc3c(n2)-c2ccc(Cl)cc2C(c2c(F)cccc2OC)=NC3)ccc1C(=O)O [Alisertib]; details: max 10 µM
Method in brief: as §1

Etoposide = compound: COc1cc([C@@H]2c3cc4c(cc3[C@@H](O[C@@H]3O[C@@H]5CO[C@@H](C)O[C@H]5[C@H](O)[C@H]3O)[C@H]3COC(=O)[C@H]23)OCO4)cc(OC)c1O [Etoposide]; details: max 10 µM
Method in brief: as §1

Gefitinib = compound: COc1cc2ncnc(Nc3ccc(F)c(Cl)c3)c2cc1OCCCN1CCOCC1 [Gefitinib]; details: max 10 µM
Method in brief: as §1

Prexasertib = compound: COc1cccc(OCCCN)c1-c1cc(Nc2cnc(C#N)cn2)n[nH]1 [Prexasertib]; details: max 1 µM
Method in brief: as §1

Doxorubicin = compound: COc1cccc2c1C(=O)c1c(O)c3c(c(O)c1C2=O)C[C@@](O)(C(=O)CO)C[C@@H]3O[C@H]1C[C@H](N)[C@H](O)[C@H](C)O1 [Doxorubicin]; details: max 1 µM
Method in brief: as §1

AZD5153 = compound: COc1nnc2ccc(N3CCC(c4ccc(OCCN5CCN(C)C(=O)[C@H]5C)cc4)CC3)nn12 [AZD5153]; details: max 1 µM
Method in brief: as §1

Lapatinib = compound: CS(=O)(=O)CCNCc1ccc(-c2ccc3ncnc(Nc4ccc(OCc5cccc(F)c5)c(Cl)c4)c3c2)o1 [Lapatinib]; details: max 10 µM
Method in brief: as §1

AZD8186 = compound: C[C@@H](Nc1cc(F)cc(F)c1)c1cc(C(=O)N(C)C)cc2c(=O)cc(N3CCOCC3)oc12 [AZD8186]; details: max 10 µM
Method in brief: as §1

Crizotinib = compound: C[C@@H](Oc1cc(-c2cnn(C3CCNCC3)c2)cnc1N)c1c(Cl)ccc(F)c1Cl [Crizotinib]; details: max 10 µM
Method in brief: as §1

Savolitinib = compound: C[C@@H](c1ccc2nccn2c1)n1nnc2ncc(-c3cnn(C)c3)nc21 [Savolitinib]; details: max 1 µM
Method in brief: as §1

AZD6738 = compound: C[C@@H]1COCCN1C2=NC(=NC(=C2)C3(CC3)[S@](=N)(=O)C)C4=C5C=CNC5=NC=C4 [AZD6738]; details: max 10 µM
Method in brief: as §1

AZD5991 = compound: Cc1c2c(nn1C)CSCc1cc(n(C)n1)CSc1cc(c3ccccc3c1)OCCCc1c(C(=O)O)n(C)c3c-2c(Cl)ccc13 [AZD5991]; details: max 1 µM
Method in brief: as §1

AZD7648 = compound: Cc1cc2ncnn2cc1Nc1ncc2c(n1)n(C1CCOCC1)c(=O)n2C [AZD7648]; details: max 10 µM
Method in brief: as §1

Taselisib = compound: Cc1nc(-c2cn3c(n2)-c2ccc(-c4cnn(C(C)(C)C(N)=O)c4)cc2OCC3)n(C(C)C)n1 [Taselisib]; details: max 10 µM
Method in brief: as §1

Selumetinib = compound: Cn1cnc2c(F)c(Nc3ccc(Br)cc3Cl)c(C(=O)NOCCO)cc21 [Selumetinib]; details: max 10 µM
Method in brief: as §1

SRA737 = compound: N#Cc1cnc(Nc2cc(NC[C@H]3CNCCO3)c(C(F)(F)F)cn2)cn1 [SRA737]; details: max 10 µM
Method in brief: as §1

MK-2206 = compound: NC1(c2ccc(-c3nc4ccn5c(=O)[nH]nc5c4cc3-c3ccccc3)cc2)CCC1 [MK-2206]; details: max 10 µM
Method in brief: as §1

Gemcitabine = compound: Nc1ccn([C@@H]2O[C@H](CO)[C@@H](O)C2(F)F)c(=O)n1 [Gemcitabine]; details: max 0.3 µM
Method in brief: as §1

[1] = compound: O=C(Nc1ccc2[nH]nc(-c3ccncc3)c2c1)[C@@H]1CCN(CC(=O)N2CCN(c3ccc(-c4ncccn4)cc3)CC2)C1; details: max 5 µM
Method in brief: as §1

Olaparib = compound: O=C(c1cc(Cc2n[nH]c(=O)c3ccccc23)ccc1F)N1CCN(C(=O)C2CC2)CC1 [Olaparib]; details: max 10 µM
Method in brief: as §1

5-Fluorouracil = compound: O=c1[nH]cc(F)c(=O)[nH]1 [5-Fluorouracil]; details: max 20 µM
Method in brief: as §1

| Cell Line | IC50, cell viability 72 h (Carboplatin) | IC50, cell viability 72 h (AZD5363) | IC50, cell viability 72 h (AZD1775) | IC50, cell viability 72 h (Trametinib) | IC50, cell viability 72 h (Paclitaxel) | IC50, cell viability 72 h (Palbociclib) | IC50, cell viability 72 h (AZD1390) | IC50, cell viability 72 h (Venetoclax) | IC50, cell viability 72 h (Dasatinib) | IC50, cell viability 72 h (SG3199) | IC50, cell viability 72 h (AZD2811) | IC50, cell viability 72 h (SN-38) | IC50, cell viability 72 h (AZD0156) | IC50, cell viability 72 h (AZD4320) | IC50, cell viability 72 h (Alisertib) | IC50, cell viability 72 h (Etoposide) | IC50, cell viability 72 h (Gefitinib) | IC50, cell viability 72 h (Prexasertib) | IC50, cell viability 72 h (Doxorubicin) | IC50, cell viability 72 h (AZD5153) | IC50, cell viability 72 h (Lapatinib) | IC50, cell viability 72 h (AZD8186) | IC50, cell viability 72 h (Crizotinib) | IC50, cell viability 72 h (Savolitinib) | IC50, cell viability 72 h (AZD6738) | IC50, cell viability 72 h (AZD5991) | IC50, cell viability 72 h (AZD7648) | IC50, cell viability 72 h (Taselisib) | IC50, cell viability 72 h (Selumetinib) | IC50, cell viability 72 h (SRA737) | IC50, cell viability 72 h (MK-2206) | IC50, cell viability 72 h (Gemcitabine) | IC50, cell viability 72 h [1] | IC50, cell viability 72 h (Olaparib) | IC50, cell viability 72 h (5-Fluorouracil) |
| --- | --- | --- | --- | --- | --- | --- | --- | --- | --- | --- | --- | --- | --- | --- | --- | --- | --- | --- | --- | --- | --- | --- | --- | --- | --- | --- | --- | --- | --- | --- | --- | --- | --- | --- | --- |
| Becker (Low Grade Glioma) | > 10000 nM | > 10000 nM | > 3000 nM | > 1000 nM | 6.48 nM | > 10000 nM | > 300 nM | > 1000 nM | > 2000 nM | > 1 nM | > 1000 nM | 28.5 nM | > 3000 nM | > 1000 nM | > 10000 nM | > 10000 nM | > 10000 nM | 94.1 nM | > 1000 nM | > 1000 nM | > 10000 nM | 3900 nM | > 10000 nM | > 1000 nM | > 10000 nM | > 1000 nM | > 10000 nM | 3430 nM | > 10000 nM | > 10000 nM | > 10000 nM | > 300 nM | > 5000 nM | > 10000 nM | > 20000 nM |
| CHL-1 (Melanoma) | > 10000 nM | > 10000 nM | 1680 nM | > 1000 nM | 19.2 nM | > 10000 nM | > 300 nM | > 1000 nM | > 2000 nM | > 1 nM | > 1000 nM | 143 nM | > 3000 nM | > 1000 nM | > 10000 nM | 8950 nM | > 10000 nM | 76.8 nM | > 1000 nM | 594 nM | 9960 nM | > 10000 nM | > 10000 nM | > 1000 nM | 2730 nM | > 1000 nM | > 10000 nM | 8260 nM | > 10000 nM | > 10000 nM | > 10000 nM | 218 nM | > 5000 nM | > 10000 nM | > 20000 nM |
| CML-T1 (Chronic Myelogenous Leukemia) | > 10000 nM | 7380 nM | 429 nM | 262 nM | 4.8 nM | 222 nM | > 300 nM | 585 nM | < 2 nM | > 1 nM | > 1000 nM | 0.718 nM | > 3000 nM | 54.1 nM | 142 nM | 92.6 nM | > 10000 nM | 6.27 nM | 62.8 nM | > 1000 nM | > 10000 nM | > 10000 nM | 692 nM | > 1000 nM | 1110 nM | > 1000 nM | > 10000 nM | > 10000 nM | 4000 nM | 588 nM | 2050 nM | 12.5 nM | > 5000 nM | 5750 nM | 19500 nM |
| COLO-684 (Endometrial Carcinoma) | > 10000 nM | 4510 nM | 701 nM | > 1000 nM | 558 nM | > 10000 nM | > 300 nM | > 1000 nM | > 2000 nM | > 1 nM | > 1000 nM | 228 nM | > 3000 nM | > 1000 nM | > 10000 nM | > 10000 nM | > 10000 nM | 19.9 nM | > 1000 nM | 578 nM | > 10000 nM | 8930 nM | > 10000 nM | > 1000 nM | 4440 nM | > 1000 nM | > 10000 nM | 4200 nM | > 10000 nM | 5200 nM | 7210 nM | 134 nM | > 5000 nM | > 10000 nM | > 20000 nM |
| EB-3 (Burkitt's Lymphoma) | > 10000 nM | > 10000 nM | 555 nM | > 1000 nM | 88.7 nM | > 10000 nM | > 300 nM | > 1000 nM | > 2000 nM | > 1 nM | > 1000 nM | 52.9 nM | > 3000 nM | > 1000 nM | > 10000 nM | 1020 nM | > 10000 nM | 86.4 nM | 194 nM | 128 nM | > 10000 nM | > 10000 nM | 7290 nM | > 1000 nM | 7040 nM | > 1000 nM | > 10000 nM | > 10000 nM | > 10000 nM | > 10000 nM | > 10000 nM | > 300 nM | > 5000 nM | > 10000 nM | > 20000 nM |
